Assay results from patent publication US20230165970A1, “COMPOSITIONS AND METHODS FOR THE TREATMENT OF BACTERIAL INFECTIONS” (priority 2017, published 2023).
Values after ≈ are worked out from the molar mass of the structure shown. Where two headings read alike, the source gives them in different places. *1 amine or outer side, *2 acyl side, *3 side chain or, on linkers, in order; H or OH if unused. Where a SMILES comes first, the peptide text is derived from it. Bridges are numbered along the chain shown (N, C = ends). Roman numbers before positions name the chains, in order. [ ]: non-standard residue; d: D form. X6 = C#CCOCCOCCOCCOCCCN1C[C@@H](C(=O)[*:1])[C@H](C(=O)[*:2])C1; Nle = CCCC[C@H](N)C(=O)O; Dab = NCC[C@H](N)C(=O)O; azaGly = NNC(=O)O

Experiments:
[1] = tested on: Ec 2469; type: cell-based, Escherichia coli
Procedure, shortened: (§1)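 Compounds were serially diluted 2-fold (8 or 12 points) against inocula from MHA cultures, set to ~0.1 OD600 in 0.85% saline. Conjugates were tested in RPMI B. Plates were incubated at 35 °C for 16-20 h, and Pa LES431 was also run with and without 50% heat-inactivated FBS.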

[2] = tested on: Ec 25922; type: cell-based, Escherichia coli
Procedure, shortened: as §1

[3] = tested on: Ec 25922 64X-1 (COL^R); type: cell-based, Escherichia coli; settings: media CA-MHB
[4] = tested on: Ec AR0349 (mcr-1, COL^R); type: cell-based, Escherichia coli; settings: media CA-MHB
[5] = tested on: Ab 19606 (COLhet^R); type: cell-based, Acinetobacter baumannii; settings: media CA-MHB
[6] = tested on: Ab 8990 (COL^R); type: cell-based, Acinetobacter baumannii
Procedure, shortened: as §1

[7] = tested on: Ab AB5075; type: cell-based, Acinetobacter baumannii
Procedure, shortened: as §1

[8] = tested on: Pa 27853; type: cell-based, Pseudomonas aeruginosa
Procedure, shortened: as §1

[9] = tested on: Pa LES431; type: cell-based, Pseudomonas aeruginosa
Procedure, shortened: as §1

[10] = tested on: Pa PAO1; type: cell-based, Pseudomonas aeruginosa
Procedure, shortened: as §1

[11] = tested on: Kp 10031; type: cell-based, Klebsiella pneumoniae
Procedure, shortened: as §1

[12] = tested on: Kp 43816; type: cell-based, Klebsiella pneumoniae
Procedure, shortened: as §1

[13] = tested on: Kp 6951 (COL^R); type: cell-based, Klebsiella pneumoniae
Procedure, shortened: as §1

[14] = tested on: Sa RN; type: cell-based
[15] = tested on: E. coli 25922; settings: 3.0 mg/kg IP qd at T+1 hour; 72 hours after bacterial challenge; N=3
Procedure: In vivo screening of selected compounds was accomplished in an E. coli bacteremia model (N=3). Efficacy was assessed in an animal model of infection using CD-1 mice by evaluating bacteremia in immune competent mice challenged with 2× the LD95 of E. coli 25922 (dosed qd, intraperitoneally (IP) at T+1 hour, survival endpoint).
Colistin (COL) and Int-17 were dosed at 0.3 mg/kg and Int-41 was dosed at 3.0 mg/kg. Percent survival was determined 72 hours after bacterial challenge. Compounds with MICs against E. coli 25922 of less than 4 μg/ml were evaluated in the bacteremia model.
Int-115 and Int-118 were evaluated for potency in a lethal model of bacteremia. […] Test articles were dissolved in 1× PBS and injected IV at a dose volume of 10 ml/kg one hour following bacterial challenge. Animals were monitored twice daily and mortality scored over three days.
CD-1 mice were used for bacteremia, C57BL/6J mice for endotoxemia. The endpoint was survival after three days for both models.

[16] = tested on: Ab AB58705 (COL^R) IpxD, mut. (no LPS); type: cell-based, Acinetobacter baumannii; settings: media CA-MHB
[17] = tested on: Ec COL^R LPS: colistin-resistant (MCR-1) strain (AR0349); assay: Lethal mouse endotoxemia model (LD95 purified LPS IP); type: in vivo, C57BL/6J mice; settings: (D) Endotoxemia (Ec COL^R LPS); 5 mg/kg IV, single, -1 hr; survival after three days
Procedure: Studies (B)-(D) shown in Table 22 summarizes the efficacy of compounds in lethal models of endotoxemia. In these models 6 week old C57I/6J immune competent mice (Jackson Laboratory) were challenged IP with purified lipopolysaccharide (LPS) in PBS at an LD95. For all studies, LPS was obtained from Sigma (catalog numbers in the table footnote) or were purified using a kit obtained from iNtRON Biotechnology Inc. (cat #17141). One hour prior to LPS challenge mice were dosed with test articles as indicated (Table 22). The results of these studies indicate that compounds are able to neutralize the lethal effects of LPS in a severe endotoxemia/sepsis model.
End point was survival after 3 days. Ec: E. coli 0111:B34, Sigma cat #L4130; Ab: Acinetobacter baumannii 5075; Kp: Klebsiella pneumonia 10, Sigma cat #L4268; Ng: Neisseria gonorrhoeae 19424; Ec 026:B86, Sigma cat #L2762; Pm: Proteus mirabilis, Sigma cat #SMB00704; Sm: Serratia marcescens, Sigma cat #L6016; Pa: Pseudomonas aeruginosa 10. […] Purified LPS used for all endotoxemia studies and if not denoted by a Sigma catalog number the LPS was purified in-house using an iNtRON #17141 purification kit. *Delayed death, at the time Fc only animals reached 100% mortality all Conjugate 41 mice were still alive.

[18] = tested on: A. baumannii AB5075; assay: A. baumannii lung infection model, lung CFU burden (C57Bl/6J mice); type: in vivo, Acinetobacter baumannii; settings: 24 h time point; conjugates 50 mpk IP at t=−12 h and t=+1 h; AZM 25 mpk SC once at t=+1 h; n=5
Procedure: A. baumannii AB5075 was grown to log-phase in LB at 37° C., 200 rpm shaking. Bacteria were washed once with PBS via centrifugation at 4,000 rpm. Bacteria were adjusted to desired concentration in PBS.
Prior to infection, 8-week-old female C57BI/6J mice (Jackson Labs) were anesthetized with 100 mg/kg ketamine and 10 mg/kg xylazine. Using an otoscope, mice were infected directly into the trachea. For CFU burden studies mice were infected with 2×10^7 CFU in 30 μL PBS. At 24 h post-infection mice were sacrificed by CO2 and both lung lobes were harvested. Lungs were homogenized with 1 mm silica beads in 1 mL PBS using a MagNA Lyser (Roche). Homogenization was carried out at 6,000 rpm for 60 s and chilled on ice for 60 s in-between runs. Lung homogenate was diluted in PBS ranging from 10^−1 to 10^−8, plated on LB plates and incubated at 37° C. overnight. The next day. CFU were enumerated and surviving CFU calculated relative to weight of the lung. […] Conjugates or hIgG1 (50 mpk) were administered intraperitoneally at t=−12 h pre-infection and t=+1 h post-infection. Azithromycin (Fresenius-Kabi) was administered subcutaneously once at t=+1 h post-infection. Efficacy of ADC conjugates (50 mpk) was determined upon intratracheal infection of A. baumannii AB5075. For CFU burden studies, mice (n=5 per group) were infected with 3×10^7 bacteria, sacrificed and lung CFU burden determined at 24 h time point.

## C#CCOCCOCCOCCOCCCNC(=O)CN(CC(=O)N[C@@H](CCCC)C(=O)N[C@@H](CCN)C(=O)N[C@H](C(=O)N[C@@H](CCN)C(=O)N[C@H]1CCNC(=O)[C@H]([C@@H](C)O)NC(=O)[C@H](CCN)NC(=O)[C@H](CCN)NC(=O)[C@H](CC(C)C)NC(=O)[C@@H](Cc2ccccc2)NC(=O)[C@H](CCN)NC1=O)[C@H](O)CCC)C(=C)N[C@@H](CCCC)C(=O)N[C@@H](CCN)C(=O)N[C@H](C(=O)N[C@@H](CCN)C(=O)N[C@H]1CCNC(=O)[C@H]([C@@H](C)O)NC(=O)[C@H](CCN)NC(=O)[C@H](CCN)NC(=O)[C@H](CC(C)C)NC(=O)[C@@H](Cc2ccccc2)NO[C@H](CCN)NC1=O)[C@H](O)CCC [Int-41]
[1]
  MIC: 2 µg/mL (≈ 0.724 µM)
[2]
  MIC: 4 µg/mL (≈ 1.45 µM)
  MIC E. coli ATCC 25922, No serum: 4 µg/mL (≈ 1.45 µM)
  MIC E. coli ATCC 25922, Serum: 1 µg/mL (≈ 0.362 µM)
[3]
  MIC: 4 µg/mL (≈ 1.45 µM)
[4]
  MIC: 4 µg/mL (≈ 1.45 µM)
[5]
  MIC: 4 µg/mL (≈ 1.45 µM)
[6]
  MIC: 128 µg/mL (≈ 46.3 µM)
[7]
  MIC: 4 µg/mL (≈ 1.45 µM)
[8]
  MIC: 2 µg/mL (≈ 0.724 µM)
[9]
  MIC: 2 µg/mL (≈ 0.724 µM)
[10]; PAO1
  MIC: 2 µg/mL (≈ 0.724 µM)
[11]
  MIC: 4 µg/mL (≈ 1.45 µM)
[12]
  MIC: 4 µg/mL (≈ 1.45 µM)
[13]
  MIC: 16 µg/mL (≈ 5.79 µM)
[14]
  MIC: >128 µg/mL
[15]
  % Survival (IP, QD): 67%

## C#CCOCCOCCOCCOCCCN1C[C@@H](C(=O)N[C@@H](CCCC)C(=O)N[C@@H](CCN)C(=O)N[C@H](C(=O)NNC(=O)N[C@H]2CCNC(=O)[C@H]([C@@H](C)O)NC(=O)[C@H](CCN)NC(=O)[C@H](CCN)NC(=O)[C@H](CC(C)C)NC(=O)[C@@H](Cc3ccccc3)NC(=O)[C@H](CCN)NC2=O)[C@@H](C)O)[C@H](C(=O)N[C@@H](CCCC)C(=O)N[C@@H](CCN)C(=O)N[C@H](C(=O)NNC(=O)N[C@H]2CCNC(=O)[C@H]([C@@H](C)O)NC(=O)[C@H](CCN)NC(=O)[C@H](CCN)NC(=O)[C@H](CC(C)C)NC(=O)[C@@H](Cc3ccccc3)NC(=O)[C@H](CCN)NC2=O)[C@@H](C)O)C1 [Int-122] (I: [Nle][Dab]T[azaGly][Dab][Dab][dF]L[Dab][Dab]T / II: [Nle][Dab]T[azaGly][Dab][Dab][dF]L[Dab][Dab]T; lactam I:5-I:C, II:5-II:C; linker I:N-II:N via X6)
[1]; Ec 2469, media CA-MHB
  MIC: 2 µg/mL (≈ 0.763 µM)
[2]; Ec 25922 + FBS (50%, heat-inactivated), media CA-MHB
  MIC: 0.25 µg/mL
[2]; Ec 25922, media CA-MHB
  MIC: 2 µg/mL (≈ 0.763 µM)
[3]
  MIC: 2 µg/mL (≈ 0.763 µM)
[4]
  MIC: 2 µg/mL (≈ 0.763 µM)
[5]
  MIC: 2 µg/mL (≈ 0.763 µM)
[16]
  MIC: 2 µg/mL (≈ 0.763 µM)
[6]; Ab 8990 (COL^R), media CA-MHB
  MIC: >128 µg/mL
[7]; Ab AB5075, media CA-MHB
  MIC: 2 µg/mL (≈ 0.763 µM)
[8]; Pa 27853, media CA-MHB
  MIC: 4 µg/mL (≈ 1.53 µM)
[9]; Pa LES431 + FBS (50%, heat-inactivated), media CA-MHB
  MIC: 8 µg/mL
[9]; Pa LES431, media CA-MHB
  MIC: 2 µg/mL (≈ 0.763 µM)
[10]; Pa PAO1, media CA-MHB
  MIC: 4 µg/mL (≈ 1.53 µM)
[11]; Kp 10031, media CA-MHB
  MIC: 2 µg/mL (≈ 0.763 µM)
[12]; Kp 43816, media CA-MHB
  MIC: 2 µg/mL (≈ 0.763 µM)
[13]; Kp 6951 (COL^R), media CA-MHB
  MIC: 8 µg/mL (≈ 3.05 µM)
[14]
  MIC: >128 µg/mL
[17]
  % survival: 80%

## CC[C@H]1OC(=O)[C@H](C)[C@@H](O[C@H]2C[C@@](C)(OC)[C@@H](O)[C@H](C)O2)[C@H](C)[C@@H](O[C@@H]2O[C@H](C)C[C@H](N(C)C)[C@H]2O)[C@](C)(O)C[C@@H](C)CN(C)[C@H](C)[C@@H](O)[C@]1(C)O [azithromycin (AZM), azithromycin, reference compound]
[18]
  reduction of lung CFU burden: 0.76 logs
